Patent publication US9452170B2, “Compounds and methods for inducing chondrogenesis” (The California Institute for Biomedical Research, priority 2013, dated 2016)

Tested on: Human MSCs
Assay: Human chondrocyte differentiation assay (immunostaining for type II collagen, Sox9 and COMP)
Format: cell-based
Conditions: 168 h, compound 1 μM, 7 days, vs DMSO vehicle, read-out: Biological Activity (increase in staining intensity compared to vehicle control)
Experimental: Human MSCs (50,000) were plated into each well of a 96-well plate and cultured overnight. Compounds (in DMSO solution) were added to the cells at a final concentration of 1 μM, and the cells were cultured for 7 days at 5% CO2, 37° C. The cells were fixed with 10% formalin solution at room temperature for 10 min, and immunostained using antibodies specific for type II collagen (Abcam), Sox9 (Santa Cruz) and cartilage oligomeric matrix protein (COMP, Santa Cruz), and fluorescently labeled secondary antibodies (Li-Cor). The total intensity of the staining was measured using Oddyssey CLx imaging system (Li-Cor). Vehicle (DMSO) was used as control to determine the basal level of chondrocyte differentiation. […] Representative data are shown in Table 1 [A: >50% increase in staining intensity compared to vehicle control; B: 30-50% increase in staining intensity compared to vehicle control].

| SMILES | activation at 1 µM [%] |
| --- | --- |
| O=C(CC1NC(=O)c2ccccc21)c1ccc(C(F)(F)F)cc1 (stereo not shown) [Compound 42] | 30 to 50 |
| CS(=O)(=O)c1ccc(C(=O)CC2OC(=O)c3ccccc32)cc1 (stereo not shown) [Compound 44] | 30 to 50 |
| CS(=O)(=O)Nc1ccccc1C(=O)Nc1ccc(CC#N)cc1 [Compound 45] | 30 to 50 |
| CS(=O)(=O)Nc1ccccc1C(=O)Nc1ccc(Br)cc1 [Compound 46] | 30 to 50 |
| O=C(O)Cc1ccccc1C(=O)Nc1ccc(CCO)cc1 [Compound 47] | 30 to 50 |
| COc1cccc(NC(=O)c2ccccc2C(=O)O)c1 [Compound 48] | 30 to 50 |
| COC(=O)N(C)Cc1cccc(NC(=O)c2ccccc2C(=O)O)c1 [Compound 49] | 30 to 50 |
| CC(=O)N(C)Cc1cccc(NC(=O)c2ccccc2C(=O)O)c1 [Compound 50] | 30 to 50 |
| NC(=O)Cc1ccc(NC(=O)c2ccccc2C(=O)O)cc1 [Compound 51] | 30 to 50 |
| CC(O)Cc1ccc(NC(=O)c2ccccc2C(=O)O)cc1 (stereo not shown) [Compound 52] | 30 to 50 |
| O=C(O)c1ccc(S(=O)(=O)Nc2ccccc2C(=O)O)cc1 [Compound 53] | 30 to 50 |
| N#Cc1ccc(C(=O)Nc2cnccc2C(=O)O)cc1 [Compound 54] | 30 to 50 |
| O=C(O)c1ccccc1NC(=O)c1ccccc1C(=O)O [Compound 55] | > 50 |
| CN(C)S(=O)(=O)c1ccccc1NC(=O)c1ccc(C#N)cc1 [Compound 56] | > 50 |
| O=C(O)c1ccccc1C(=O)Nc1ccccc1CCO [Compound 57] | 30 to 50 |
| C/C(=N\O)c1cccc(NC(=O)c2ccccc2C(=O)O)c1 [Compound 58] | 30 to 50 |
| CON=C(C)c1cccc(NC(=O)c2ccccc2C(=O)O)c1 [Compound 59] | 30 to 50 |
| N#Cc1ccc(NC(=O)c2ccccc2-c2ccc(C(=O)O)cc2)cc1 [Compound 60] | > 50 |
| N#Cc1ccc(NC(=O)c2ccccc2-c2ccccc2C(=O)O)cc1 [Compound 61] | > 50 |
| O=C(O)c1ccccc1C(=O)Nc1ccc2c(c1)OCCO2 [Compound 64] | 30 to 50 |
| O=C(O)c1ccccc1C(=O)Nc1ccc2c(c1)OCO2 [Compound 65] | > 50 |
| Cc1cc(NC(=O)c2ccccc2C(=O)O)ccn1 [Compound 66] | 30 to 50 |
| Cc1cnccc1NC(=O)c1ccccc1C(=O)O [Compound 67] | > 50 |

| SMILES | activation at 1 µM [%] |
| --- | --- |
| COc1ccccc1NC(=O)c1ccccc1C(=O)O [Compound 68] | > 50 |
| O=C(O)c1ccccc1C(=O)NCc1cc(C(F)(F)F)cc(C(F)(F)F)c1 [Compound 69] | 30 to 50 |
| N#Cc1ccccc1NC(=O)c1ccccc1C(=O)O [Compound 70] | > 50 |
| NCc1cccc(NC(=O)c2ccccc2C(=O)O)c1 [Compound 71] | > 50 |
| CS(=O)(=O)NCc1cccc(NC(=O)c2ccccc2C(=O)O)c1 [Compound 72] | > 50 |
| O=C(O)c1ccccc1C(=O)Nc1ccc(-c2ncc[nH]2)cc1 [Compound 74] | 30 to 50 |
| CN(C(N)=O)c1ccccc1C(=O)Nc1ccc(C#N)cc1 [Compound 75] | 30 to 50 |
| N#Cc1ccc(NC(=O)c2ccccc2NS(=O)(=O)c2ccccc2)cc1 [Compound 77] | > 50 |
| CN(c1ccccc1C(=O)Nc1ccc(C#N)cc1)S(C)(=O)=O [Compound 78] | 30 to 50 |
| COCCS(=O)(=O)Nc1ccccc1C(=O)Nc1ccc(C#N)cc1 [Compound 79] | 30 to 50 |
| O=C(O)c1ccccc1C(=O)Nc1ccon1 [Compound 80] | 30 to 50 |
| O=C(O)c1ccccc1C(=O)NCCOc1ccccc1 [Compound 81] | 30 to 50 |
| Cc1cc(NC(=O)c2ccccc2C(=O)O)n[nH]1 [Compound 82] | > 50 |
| O=C(O)c1ccccc1C(=O)Nc1ccccc1OCC(F)(F)F [Compound 83] | > 50 |
| CC(CO)c1ccc(NC(=O)c2ccccc2C(=O)O)cc1 (stereo not shown) [Compound 84] | > 50 |
| Cc1ccc(NC(=O)c2ccccc2C(=O)O)c(F)c1 [Compound 85] | 30 to 50 |
| O=C(O)c1ccccc1C(=O)NCc1ccccc1OC(F)F [Compound 86] | 30 to 50 |
| COc1ccc(OC)c(NC(=O)c2ccccc2C(=O)O)c1 [Compound 87] | 30 to 50 |
| O=C(O)c1ccc(CNC(=O)c2cccc(F)c2C(=O)O)cc1 [Compound 93] | 30 to 50 |
| O=C(O)c1ccc(CNC(=O)c2c(F)cccc2C(=O)O)cc1 [Compound 94] | 30 to 50 |
| O=C(O)c1ccc(CNC(=O)c2ccccc2C(=O)O)c(Cl)c1 [Compound 96] | 30 to 50 |
| O=C(O)c1ccc(CNC(=O)c2cccc(Cl)c2C(=O)O)cc1 [Compound 99] | 30 to 50 |
| O=C(O)c1ccc(CNC(=O)c2c(Cl)cccc2C(=O)O)cc1 [Compound 100] | 30 to 50 |

| SMILES | activation at 1 µM [%] |
| --- | --- |
| COc1cccc(C(=O)NCc2ccc(C(=O)O)cc2)c1C(=O)O [Compound 103] | > 50 |
| COc1cccc(C(=O)O)c1C(=O)NCc1ccc(C(=O)O)cc1 [Compound 104] | > 50 |
| O=C(O)c1ccccc1C(=O)Nc1ccc(OCCO)cc1 [Compound 105] | 30 to 50 |
| COc1ccc(C(=O)NCc2ccc(C(=O)O)cc2)c(C(=O)O)c1 [Compound 106] | 30 to 50 |
| CN(c1cccc(NC(=O)c2ccccc2C(=O)O)c1)S(C)(=O)=O [Compound 107] | 30 to 50 |
| O=C(Nc1ccccc1S(=O)(=O)N1CCOCC1)c1cccc(F)c1 [Compound 110] | 30 to 50 |
| O=C(Nc1ccccc1S(=O)(=O)N1CCOCC1)c1ccccc1F [Compound 118] | 30 to 50 |
| CS(=O)(=O)Nc1ccccc1C(=O)NCc1ccc(C(=O)O)cc1 [Compound 120] | 30 to 50 |
| CC(=O)c1cccc(C(=O)Nc2ccccc2S(=O)(=O)N2CCOCC2)c1 [Compound 122] | > 50 |
| CN(CCO)S(=O)(=O)c1ccccc1NC(=O)c1ccc(F)cc1 [Compound 125] | 30 to 50 |
| O=C(Nc1ccccc1S(=O)(=O)N1CCOCC1)c1ccc(-c2ccccc2)cc1 [Compound 133] | 30 to 50 |
| O=C(Nc1ccccc1S(=O)(=O)N1CCS(=O)(=O)CC1)c1ccc(F)cc1 [Compound 141] | 30 to 50 |
| CC(=O)Nc1ccc(NC(=O)c2ccccc2C(=O)O)cc1 [Compound 142] | 30 to 50 |
| CC(=O)CCc1cccc(NC(=O)c2ccccc2C(=O)O)c1 [Compound 145] | 30 to 50 |
| O=C(O)c1ccc(C(=O)Nc2ccccc2S(=O)(=O)N2CCOCC2)cc1 [Compound 147] | 30 to 50 |
| O=C(O)c1ccccc1C(=O)Nc1ccc(CCCO)cc1OC(F)(F)F [Compound 148] | 30 to 50 |
| COc1cc(CNC(=O)c2ccccc2C(=O)O)ccc1C(=O)O [Compound 154] | 30 to 50 |
| N#Cc1cc(CNC(=O)c2ccccc2C(=O)O)ccc1C(=O)O [Compound 155] | > 50 |
| CCCS(=O)(=O)Nc1ccccc1C(=O)Nc1ccc(CCOC)cc1 [Compound 159] | 30 to 50 |
| COCCc1ccc(NC(=O)c2ccccc2NS(=O)(=O)C(C)C)cc1 [Compound 162] | 30 to 50 |
| O=C(O)Cc1ccc(CNC(=O)c2ccccc2C(=O)O)cc1 [Compound 164] | > 50 |
